Assay results as given in ChEMBL document CHEMBL5625277, “Systematical mutational analysis of teriparatide on anti-osteoporosis activity by alanine scanning” (Bioorg Med Chem Lett, 2024).
Active and inactive are the calls of the source. The calls are words filed in the database; no cut-off is given here.

What was measured:
Skull progenitor cell = assay: Induction of osteoblast differentiation in mouse skull progenitor cells assessed as increase in purple-stained ALP-positive cells at 100 nM measured after 4 days by imaging analysis; assay type: functional, cell-based; details: time 4.0 day
[1] = Cytotoxicity in pre-osteoblasts (unknown origin) assessed as cell death upto 5 uM by CCK8 assay; assay type: toxicity, cell-based; details: pre-osteoblast
Calvarial osteoblast = assay: Induction of mineralization in osteoblast assessed as formation of calcium nodules at 50 to 100 nM measured after 14 days by Alizarin Red S staining based analysis; assay type: functional, cell-based; details: dose 50-100 nM, time 14.0 day

| SMILES | Activity (Skull progenitor cell) | Activity [1] | Activity (Calvarial osteoblast) |
| --- | --- | --- | --- |
| CC[C@H](C)[C@H](NC(=O)[C@H](CCC(=O)O)NC(=O)[C@H](CO)NC(=O)[C@@H](NC(=O)[C@H](CO)NC(C)=O)C(C)C)C(=O)N[C@@H](CCC(N)=O)C(=O)N[C@@H](CC(C)C)C(=O)N[C@@H](CCSC)C(=O)N[C@@H](Cc1cnc[nH]1)C(=O)N[C@@H](CC(N)=O)C(=O)N[C@@H](CC(C)C)C(=O)NCC(=O)N[C@@H](C)C(=O)N[C@@H](Cc1cnc[nH]1)C(=O)N[C@@H](CC(C)C)C(=O)N[C@@H](CC(N)=O)C(=O)N[C@@H](CO)C(=O)N[C@@H](CCSC)C(=O)N[C@@H](CCC(=O)O)C(=O)N[C@@H](CCCNC(=N)N)C(=O)N[C@H](C(=O)N[C@@H](CCC(=O)O)C(=O)N[C@@H](Cc1c[nH]c2ccccc12)C(=O)N[C@@H](CC(C)C)C(=O)N[C@@H](CCCNC(=N)N)C(=O)N[C@@H](CCCCN)C(=O)N[C@@H](CCCCN)C(=O)N[C@@H](CC(C)C)C(=O)N[C@@H](CCC(N)=O)C(=O)N[C@@H](CC(=O)O)C(=O)N[C@H](C(=O)N[C@@H](Cc1cnc[nH]1)C(=O)N[C@@H](CC(N)=O)C(=O)N[C@@H](Cc1ccccc1)C(N)=O)C(C)C)C(C)C | Active | Non-Toxic | Active |
| CC[C@H](C)[C@H](NC(=O)[C@H](CCC(=O)O)NC(=O)[C@H](CO)NC(=O)[C@@H](NC(=O)[C@H](CO)NC(C)=O)C(C)C)C(=O)N[C@@H](CCC(N)=O)C(=O)N[C@@H](CC(C)C)C(=O)N[C@@H](CCSC)C(=O)N[C@@H](Cc1cnc[nH]1)C(=O)N[C@@H](CC(N)=O)C(=O)N[C@@H](CC(C)C)C(=O)NCC(=O)N[C@@H](CCCCN)C(=O)N[C@@H](Cc1cnc[nH]1)C(=O)N[C@@H](CC(C)C)C(=O)N[C@@H](CC(N)=O)C(=O)N[C@@H](CO)C(=O)N[C@@H](CCSC)C(=O)N[C@@H](CCC(=O)O)C(=O)N[C@@H](CCCNC(=N)N)C(=O)N[C@H](C(=O)N[C@@H](CCC(=O)O)C(=O)N[C@@H](Cc1c[nH]c2ccccc12)C(=O)N[C@@H](CC(C)C)C(=O)N[C@@H](CCCNC(=N)N)C(=O)N[C@@H](CCCCN)C(=O)N[C@@H](CCCCN)C(=O)N[C@@H](CC(C)C)C(=O)N[C@@H](CCC(N)=O)C(=O)N[C@@H](C)C(=O)N[C@H](C(=O)N[C@@H](Cc1cnc[nH]1)C(=O)N[C@@H](CC(N)=O)C(=O)N[C@@H](Cc1ccccc1)C(N)=O)C(C)C)C(C)C | Active | Non-Toxic | Active |
